From PMC4859410 (Pharmacogenetics and genomics, 2010)

Assays:
Type in all cases: in vitro ADME
[1] = target: T1, OATP1A2 (Homo sapiens, UniProt P46721); experiment: Drug uptake in X. laevis oocytes injected with SLCO1A2; conditions: for Drug uptake, OATP1A2: OATP1A2 cRNA injected oocytes; for Drug uptake, OATP1A2 / Drug uptake, Water: 1 µM (darunavir 3 µM), 18°C, 1hr, mean ± SD; for Accumulation in SLCO1A2 cRNA injected oocytes compared to water injected control oocytes (in words): in the presence and in the absence of 2% HSA; for Drug uptake, Water: water injected control oocytes (Table 1); for Ratio (fold increase in OATP1A2 cRNA injected oocytes compared to water injected oocytes): * = P < 0.05
T1 sequence (P46721 1-670): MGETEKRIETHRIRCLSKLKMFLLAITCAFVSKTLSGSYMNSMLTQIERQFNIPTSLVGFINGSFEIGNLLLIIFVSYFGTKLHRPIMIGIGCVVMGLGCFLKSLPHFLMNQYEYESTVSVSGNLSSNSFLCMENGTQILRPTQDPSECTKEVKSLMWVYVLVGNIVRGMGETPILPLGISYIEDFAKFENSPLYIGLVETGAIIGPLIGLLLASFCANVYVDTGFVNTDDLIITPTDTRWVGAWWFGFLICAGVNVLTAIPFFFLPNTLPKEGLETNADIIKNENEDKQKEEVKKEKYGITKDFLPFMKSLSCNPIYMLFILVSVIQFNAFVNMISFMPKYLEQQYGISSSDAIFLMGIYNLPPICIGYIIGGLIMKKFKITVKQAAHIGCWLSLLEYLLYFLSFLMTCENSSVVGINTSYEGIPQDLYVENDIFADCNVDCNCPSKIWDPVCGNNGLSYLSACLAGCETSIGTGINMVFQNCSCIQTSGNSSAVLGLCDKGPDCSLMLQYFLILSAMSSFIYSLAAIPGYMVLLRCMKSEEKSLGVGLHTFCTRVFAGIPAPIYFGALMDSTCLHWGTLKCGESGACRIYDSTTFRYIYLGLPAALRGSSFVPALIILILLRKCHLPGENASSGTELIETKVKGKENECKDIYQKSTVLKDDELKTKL

[2] = target: T2, OATP1B1 (Homo sapiens, UniProt Q9Y6L6); experiment: Drug uptake in X. laevis oocytes injected with SLCO1B1; conditions: for Drug uptake, OATP1B1: OATP1B1 cRNA injected oocytes; for Drug uptake, OATP1B1 / Drug uptake, Water: 1 µM (darunavir 3 µM), 18°C, 1hr, mean ± SD; for Accumulation in SLCO1B1 cRNA injected oocytes compared to water injected control oocytes (in words): in the presence and in the absence of 2% HSA; for Drug uptake, Water: water injected control oocytes (Table 2); for Ratio (fold increase in OATP1B1 cRNA injected oocytes compared to water injected oocytes): * = P < 0.05
T2 sequence (Q9Y6L6 1-691): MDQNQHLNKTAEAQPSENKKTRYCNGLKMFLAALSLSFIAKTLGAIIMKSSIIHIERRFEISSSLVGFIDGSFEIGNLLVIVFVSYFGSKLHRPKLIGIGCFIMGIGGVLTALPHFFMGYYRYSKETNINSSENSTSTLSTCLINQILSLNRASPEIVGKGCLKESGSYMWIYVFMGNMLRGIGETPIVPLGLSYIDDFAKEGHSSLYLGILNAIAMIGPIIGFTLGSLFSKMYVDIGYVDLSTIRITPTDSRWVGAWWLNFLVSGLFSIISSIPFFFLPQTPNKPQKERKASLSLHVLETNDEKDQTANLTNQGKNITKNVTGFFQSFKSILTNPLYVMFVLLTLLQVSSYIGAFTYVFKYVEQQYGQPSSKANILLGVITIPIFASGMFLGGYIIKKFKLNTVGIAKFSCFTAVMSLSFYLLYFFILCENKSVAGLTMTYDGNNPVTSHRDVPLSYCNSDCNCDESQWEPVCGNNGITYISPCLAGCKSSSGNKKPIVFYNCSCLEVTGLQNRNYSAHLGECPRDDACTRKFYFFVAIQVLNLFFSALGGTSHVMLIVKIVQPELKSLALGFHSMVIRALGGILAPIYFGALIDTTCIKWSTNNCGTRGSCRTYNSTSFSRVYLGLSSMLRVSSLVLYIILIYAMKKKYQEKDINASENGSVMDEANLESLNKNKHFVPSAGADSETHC

[3] = target: T3, OATP1B3 (Homo sapiens, UniProt Q9NPD5); experiment: Drug uptake in X. laevis oocytes injected with SLCO1B3; conditions: without human serum albumin; for Drug uptake, OATP1B3: OATP1B3 cRNA injected oocytes; for Drug uptake, OATP1B3 / Drug uptake, Water: 1 µM (darunavir 3 µM, performed once), 18°C, 1hr, mean ± SD; for Drug uptake, Water: water injected control oocytes (Table 3); for Ratio (fold increase in OATP1B3 cRNA injected oocytes compared to water injected oocytes): * = P < 0.05
T3 sequence (Q9NPD5 1-702): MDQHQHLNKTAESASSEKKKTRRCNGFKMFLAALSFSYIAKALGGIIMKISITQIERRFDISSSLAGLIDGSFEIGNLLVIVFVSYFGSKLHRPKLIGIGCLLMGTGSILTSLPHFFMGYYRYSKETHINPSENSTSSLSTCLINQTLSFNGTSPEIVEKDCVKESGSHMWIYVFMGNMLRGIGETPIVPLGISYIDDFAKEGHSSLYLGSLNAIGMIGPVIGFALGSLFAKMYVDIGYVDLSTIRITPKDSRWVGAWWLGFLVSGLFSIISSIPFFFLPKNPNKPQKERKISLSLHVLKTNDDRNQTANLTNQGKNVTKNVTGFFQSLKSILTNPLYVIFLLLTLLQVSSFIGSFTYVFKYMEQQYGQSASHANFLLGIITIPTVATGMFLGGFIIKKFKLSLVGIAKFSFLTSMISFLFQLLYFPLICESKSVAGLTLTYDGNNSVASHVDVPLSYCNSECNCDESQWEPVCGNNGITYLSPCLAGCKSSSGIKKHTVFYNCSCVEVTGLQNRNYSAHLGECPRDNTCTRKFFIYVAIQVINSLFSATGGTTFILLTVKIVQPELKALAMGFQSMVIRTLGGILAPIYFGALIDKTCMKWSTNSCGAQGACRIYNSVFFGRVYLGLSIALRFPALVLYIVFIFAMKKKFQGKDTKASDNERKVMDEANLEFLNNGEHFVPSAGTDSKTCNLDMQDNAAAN

Row | Structure (SMILES) | Drug uptake, OATP1A2 ([1]; with 2% human serum albumin) [pmol/oocyte] | Drug uptake, OATP1A2 ([1]; without human serum albumin) [pmol/oocyte] | Accumulation in SLCO1A2 cRNA injected oocytes compared to water injected control oocytes (in words) [1] | Drug uptake, Water ([1]; with 2% human serum albumin) [pmol/oocyte] | Drug uptake, Water ([1]; without human serum albumin) [pmol/oocyte] | Ratio (fold increase in OATP1A2 cRNA injected oocytes compared to water injected oocytes) ([1]; with 2% human serum albumin) | Ratio (fold increase in OATP1A2 cRNA injected oocytes compared to water injected oocytes) ([1]; without human serum albumin) | Drug uptake, OATP1B1 ([2]; with 2% human serum albumin) [pmol/oocyte] | Drug uptake, OATP1B1 ([2]; without human serum albumin) [pmol/oocyte] | Accumulation in SLCO1B1 cRNA injected oocytes compared to water injected control oocytes (in words) [2] | Drug uptake, Water ([2]; with 2% human serum albumin) [pmol/oocyte] | Drug uptake, Water ([2]; without human serum albumin) [pmol/oocyte] | Ratio (fold increase in OATP1B1 cRNA injected oocytes compared to water injected oocytes) ([2]; with 2% human serum albumin) | Ratio (fold increase in OATP1B1 cRNA injected oocytes compared to water injected oocytes) ([2]; without human serum albumin) | Drug uptake, OATP1B3 [3] [pmol/oocyte] | Drug uptake, Water [3] [pmol/oocyte] | Accumulation in SLCO1B3 cRNA injected oocytes compared to water injected control (in words) [3] | Ratio (fold increase in OATP1B3 cRNA injected oocytes compared to water injected oocytes) [3]
1 | C[C@]12CC[C@@H]3c4ccc(OS(=O)(=O)O)cc4CC[C@H]3[C@@H]1CCC2=O [estrone-3-sulphate] | 0.35 ± 0.15 | 2.02 ± 0.52 | significant increase in accumulation | 0.10 ± 0.03 | 0.19 ± 0.05 | 3.55 * | 10.9 * | 0.15 ± 0.03 | 0.51 ± 0.17 | significant increase in accumulation | 0.08 ± 0.03 | 0.16 ± 0.04 | 1.90 * | 3.21 * | 0.50 ± 0.20 | 0.21 ± 0.01 | trend towards increased accumulation | 
2 | O=C1Nc2ccc(Cl)cc2[C@@](C#CC2CC2)(C(F)(F)F)O1 [Efavirenz, efavirenz] | 1.63 ± 0.24 | 10.3 ± 2.90 | No significant increase | 1.47 ± 0.28 | 12.6 ± 2.49 | 1.11 | 0.81 | 1.51 ± 0.12 | 16.0 ± 4.17 | No significant increase | 1.46 ± 0.21 | 15.9 ± 1.70 | 1.03 | 1.00 | 18.21 ± 6.21 | 16.56 ± 6.84 | No significant increase | 1.10
3 | CC(C)CN(C[C@@H](O)[C@H](Cc1ccccc1)NC(=O)O[C@H]1CO[C@H]2OCC[C@H]21)S(=O)(=O)c1ccc(N)cc1 [Darunavir, darunavir] | 2.56 ± 0.78 | 4.32 ± 0.75 |  | 0.96 ± 0.37 | 2.18 ± 0.40 |  |  | 2.14 ± 0.82 | 4.13 ± 0.40 |  | 0.72 ± 0.18 | 2.12 ± 0.55 |  |  | 5.41 | 3.29 |  | 
4 | Cc1ccnc2c1NC(=O)c1cccnc1N2C1CC1 [Nevirapine, nevirapine] | 2.17 ± 0.26 | 2.92 ± 0.59 | No significant increase | 2.23 ± 0.93 | 2.65 ± 0.54 | 0.97 | 1.10 | 2.01 ± 0.40 | 2.26 ± 0.20 | No significant increase | 1.80 ± 0.46 | 2.14 ± 0.22 | 1.12 | 1.06 | 3.12 ± 0.47 | 2.98 ± 0.59 | No significant increase | 1.05
